According to ChEMBL document CHEMBL1201862, “PubChem BioAssay data set” (2004):
Active and inactive are the calls of the source. Cut-off read from the data, not from the text of the source, for most assays here: actives have a measured EC50 and inactives only a lower limit.

Tests used:
[1] = biological target: T1, Short transient receptor potential channel 4 (Mus musculus, UniProt Q9QUQ5); assay: mouse TRPC4 channel activators, dose response, cell-based, HEK293 TRPC4/mu-opioid, Fluo-4 calcium (AID 434937); format: functional
T1 sequence (Q9QUQ5 whole entry): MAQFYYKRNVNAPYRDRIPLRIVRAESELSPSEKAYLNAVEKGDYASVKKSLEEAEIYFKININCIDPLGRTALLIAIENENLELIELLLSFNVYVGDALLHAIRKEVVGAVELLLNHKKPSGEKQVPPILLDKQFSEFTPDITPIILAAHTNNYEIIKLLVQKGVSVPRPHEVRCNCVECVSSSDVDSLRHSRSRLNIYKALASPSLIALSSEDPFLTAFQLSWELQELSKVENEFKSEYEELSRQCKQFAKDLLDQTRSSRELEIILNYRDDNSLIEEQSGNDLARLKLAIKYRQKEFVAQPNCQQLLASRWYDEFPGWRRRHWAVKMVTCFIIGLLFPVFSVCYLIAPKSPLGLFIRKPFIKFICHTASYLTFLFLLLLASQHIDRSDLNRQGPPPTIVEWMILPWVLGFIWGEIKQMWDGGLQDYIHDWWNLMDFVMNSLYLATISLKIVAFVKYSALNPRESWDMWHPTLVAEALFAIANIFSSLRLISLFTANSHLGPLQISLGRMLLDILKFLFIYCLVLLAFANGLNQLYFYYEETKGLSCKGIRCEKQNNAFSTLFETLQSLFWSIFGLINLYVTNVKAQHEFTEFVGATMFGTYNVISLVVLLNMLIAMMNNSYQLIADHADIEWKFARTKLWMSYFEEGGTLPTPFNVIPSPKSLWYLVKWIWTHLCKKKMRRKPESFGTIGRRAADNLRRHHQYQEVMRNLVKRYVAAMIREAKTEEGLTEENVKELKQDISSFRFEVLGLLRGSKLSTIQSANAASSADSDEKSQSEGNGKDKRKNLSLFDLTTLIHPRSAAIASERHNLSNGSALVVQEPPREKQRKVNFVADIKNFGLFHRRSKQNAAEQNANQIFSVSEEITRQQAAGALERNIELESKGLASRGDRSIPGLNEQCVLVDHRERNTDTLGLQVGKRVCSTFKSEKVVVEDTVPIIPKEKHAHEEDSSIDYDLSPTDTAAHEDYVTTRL

[2] = inhibitors of SNCA 5'UTR-driven reporter translation, confirmation, H4 neuroglioma cells, luminescence (AID 1988); format: functional, cell-based
[3] = inhibitors of firefly luciferase expression or activity, dose response, H4 neuroglioma cells, luminescence (AID 1990); format: functional, cell-based
[4] = Luminescence Cell-Based Dose Response HTS to Identify Inhibitors of 5'UTR Stem-Loop Driven Prion Protein mRNA Translation in H4 Neuroglioblastoma Cells. [Related pubchem assays: 1827 (Project Summary), 1813 (Primary HTS)]; format: functional

SMILES	EC50 [1]	EC50 [2]	EC50 [3]	EC50 [4]
Cc1csc2c(N3CCN(C(S)=Nc4ccc(F)cc4F)CC3)ncnc12	1.88 µM (active)			
CN(C)CCCN(C(=O)c1ccc(S(=O)(=O)N2CCCc3ccccc32)cc1)c1nc2ccc(F)cc2s1	2.37 µM (active)	> 120 µM (not active)	12.6 µM (active)	> 120 µM (not active)
